Reference: patent publication US20240018146A1, “COMPOSITIONS AND METHODS OF USING THE SAME FOR TREATMENT OF NEURODEGENERATIVE AND MITOCHONDRIAL DISEASE” (MITOKININ, INC., priority 2020, published 2024)
Where two headings read alike, the source gives them in different places.

What was measured:
Type in all cases: cell-based
HeLa MKYP cells [1] = test: Human mitophagy assay (HeLa mKeima assay, FACS)
How it was run: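 HeLa cells carrying the pH-sensitive mtKeima tag incubated 16 h with compound at several concentrations, then 1 uM FCCP/oligomycin for 6 h. FACS detects mitochondria in lysosomes through the Keima emission shift, quantified as percentage of cells in mitophagy.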

HeLa MKYP cells [2] = test: Cell death measured by DAPI staining, with 1 μM FCCP/oligomycin or no toxin (no FO); settings: for Max cell death at 25 μM compound, 1 uM FO (%) / Cell death at 25 μM (no FO) (%): 25 μM compound
How it was run: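 HeLa MKYP cells were treated with compounds alongside 1 μM FCCP/oligomycin or no toxin for 6 or 6.5 h. Cell death was scored by DAPI staining, with H2O2 treatment as the death control.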

[3] = Mitotoxicity / Mitotox safety margin (therapeutic window)
[4] = Homo sapiens, HeLa, read-out: Mitophagy induction EC50
[5] = read-out: Mitophagy induction EC50
[6] = Homo sapiens, HeLa, HeLa mKeima assay, read-out: Mitophagy EC50 (HeLa mKeima assay)

Structure (SMILES)	EC50 (HeLa MKYP cells [1]; [4]) [nM]	Highest safe dose (cytotoxicity; no FO; safe means DAPI+ <20%) (HeLa MKYP cells [2]) [µM]	Max % death with 1 μM FO (HeLa MKYP cells [2]) [%]	Mito-Safety Index (highest safe dose/EC50) [3]	Highest safe dose (μM) (mitotox or cytotox) [3] [µM]	EC50 (HeLa MKYP cells [1]; [5]) [nM]	EC50 (HeLa MKYP cells [1]; [6]) [nM]	Max cell death at 25 μM compound, 1 uM FO (%) (HeLa MKYP cells [2])	Cell death at 25 μM (no FO) (%) (HeLa MKYP cells [2])	Mitotox safety margin (Therapeutic window) [3]
Fc1ccc2c(c1)CC[C@@H](N1C[C@H]3COC[C@H]3C1)[C@@H]2Nc1ncnc2[nH]c(C(F)(F)F)cc12 (single isomer, unassigned) [EP-0040721]	180	8.3	36.3	46.94	8.3					
Fc1ccc2c(c1)OC[C@H](N1C[C@H]3COC[C@@H]3C1)[C@H]2Nc1ncnc2[nH]c(C(F)(F)F)cc12 (single isomer, unassigned) [EP-0040748]		25.0	25.3	46.81	9.9	210				
C[C@@H]1CN([C@H]2COc3ccccc3[C@@H]2Nc2ncnc3[nH]c(C(F)(F)F)cc23)C[C@H](C)O1 (single isomer, unassigned) [EP-0040749]	150	25.0	34.3	48.24	7.1					
C[C@@H]1CN([C@H]2COc3ccccc3[C@@H]2Nc2ncnc3[nH]c(C4CC4)cc23)C[C@H](C)O1 (single isomer, unassigned) [EP-0040750]	50	25.0	27.7	43.07	2.3					
C[C@@H]1CN([C@H]2COc3cc(F)ccc3[C@@H]2Nc2ncnc3[nH]c(C(F)(F)F)cc23)C[C@H](C)O1 (single isomer, unassigned) [EP-0040773]	130	25.0	27.3	77.04	9.9					
C[C@@H]1CN([C@H]2COc3cc(F)ccc3[C@@H]2Nc2ncnc3[nH]c(C4CC4)cc23)C[C@H](C)O1 (single isomer, unassigned) [EP-0040842]	20	25.0	22.5	82.00	2.0					
FC(F)(F)c1cc2c(N[C@@H]3c4ccccc4OC[C@@H]3C3CCCOC3)ncnc2[nH]1 (single isomer, unassigned) [EP-0041005]	1450	25.0	24.8	17.30	25.0					
COC[C@@H]1CCN([C@H]2COc3ccccc3[C@@H]2Nc2ncnc3[nH]c(C(F)(F)F)cc23)C1 (single isomer, unassigned) [EP-0041071]		25.0	12.6	47.29	3.3	70				
COC[C@H]1CCN([C@H]2COc3ccccc3[C@@H]2Nc2ncnc3[nH]c(C(F)(F)F)cc23)C1 (single isomer, unassigned) [EP-0041175]		25.0	8.8	30.68	4.5	150				
[2H]C([2H])([2H])OC1CN([C@H]2COc3ccccc3[C@@H]2Nc2ncnc3[nH]c(C(F)(F)F)cc23)C1 (single isomer, unassigned) [EP-0041326]		25.0	7.5	56.49	19.8	350				
COC[C@@H]1CCN(C2COc3ccccc3C2Nc2ncnc3[nH]c(C4CC4)cc23)C1 (single isomer, unassigned) [EP-0041514]		25.0	8.1	38.63	1.4	30				
FC(F)OC1CN([C@H]2COc3ccccc3[C@@H]2Nc2ncnc3[nH]c(C(F)(F)F)cc23)C1 (single isomer, unassigned) [EP-0041541]	290	25.0	19.1	28.61	8.3					
c1ccc2c(c1)CC[C@H](N1C[C@H]3COC[C@H]3C1)[C@H]2Nc1ncnc2[nH]c(C3CC3)cc12 [EP-0039713]	100	25.0	26.3	9.46	0.9		100	19.2	12.9	+ (+ = <10)
CN(c1ncnc2[nH]c(C(F)(F)F)cc12)C1c2ccccc2CCC1N1C[C@H]2COC[C@H]2C1 (stereo partly shown) [EP-0039742]	3360	25.0	20.4	7.45	25.0		3330	13.8	2.45	
CN(c1ncnc2[nH]c(C3CC3)cc12)C1c2ccccc2CCC1N1C[C@H]2COC[C@H]2C1 (stereo partly shown) [EP-0039743]	4170	25.0	28.2	5.99	25.0		3880	33.7	11.6	
c1ccc2c(c1)OC[C@H](N1CCOCC1)[C@H]2Nc1ncnc2[nH]c(C3CC3)cc12 [EP-0040080]	480	25.0	13.9	51.66	25.0		590	16	4.73	++ (++ = 10 < x < 20)
N#Cc1ccc2c(c1)CC[C@H](N1C[C@H]3COC[C@H]3C1)[C@H]2Nc1ncnc2[nH]c(C(F)(F)F)cc12 [EP-0040120]	2300	8.3	93.5		8.3					
FC(F)(F)c1cc2c(N[C@H]3c4ccccc4OC[C@@H]3N3C[C@H]4COC[C@H]4C3)ncnc2[nH]1 [EP-0040138]	770	25.0	9.4	32.50	25.0					
Fc1ccc2c(c1)CC[C@H](N1C[C@H]3COC[C@@H]3C1)[C@H]2Nc1ncnc2[nH]c(C3CC3)cc12 [EP-0040395]	210	25.0	8.1	56.09	11.7					
FC(F)(F)c1cc2c(N[C@H]3c4ccccc4OC[C@@H]3C3CCOCC3)ncnc2[nH]1 [EP-0040583]	240	25.0	17.8	104.01	25.0					
Fc1ccc2c(c1)CC[C@H](N1C[C@H]3COC[C@H]3C1)[C@H]2Nc1ncnc2[nH]c(C3CC3)cc12 [EP-0040601]	190	25.0	45.3	55.12	10.3					
